In brackets after ≈: the same amount, converted by molar mass. Where two headings read alike, the source gives them in different places.
What was measured:
Test in all cases: MIC (Minimum Inhibitory Concentration)
Type in all cases: cell-based
Candida albicans = test system: Candida albicans
Fusarium (bulb) = Fusarium (bulb) A 3252
Fusarium (tulip) = Fusarium (tulip) A 3253
Fusarium solani = conditions: read-out: MIC values
Rhizoctonia solani = conditions: read-out: MIC values
Trichophyton equinum = test system: Trichophyton equinum
[1] = test system: Trichophyton mentagrophytus
Trichophyton quickeaneum = conditions: read-out: MIC values
Trichophyton rubrum = test system: Trichophyton rubrum
[2] = test system: Trichophyton schoenleinii; conditions: read-out: MIC values
[3] = test system: Trichophyton soudanese joyeux; conditions: read-out: MIC values
Trichophyton violoceum = conditions: read-out: MIC values

[C-]#[N+]C(=Cc1ccccc1)S(=O)(=O)c1ccc(C)cc1 [Example 1, 1-isocyano-2-phenyl-1-(4-toluenesulphonyl)-ethene]
MIC (Candida albicans; Candida albicans A 7, read-out: MIC values): 1.5 µg/mL (≈ 5.29 µM) | MIC (Candida albicans; Candida albicans A 3140, read-out: MIC values): 12.5 µg/mL (≈ 44.1 µM) | MIC (Candida albicans; Candida albicans A 3141, read-out: MIC values): 12.5 µg/mL (≈ 44.1 µM) | MIC (Candida albicans; Candida albicans A 3142, read-out: MIC values): 12.5 µg/mL (≈ 44.1 µM) | MIC (Candida albicans; Candida albicans A 3143, read-out: MIC values): 12.5 µg/mL (≈ 44.1 µM) | MIC (Candida albicans; Candida albicans A 3144, read-out: MIC values): 12.5 µg/mL (≈ 44.1 µM) | MIC (Candida albicans; Candida albicans A 3145, read-out: MIC values): 12.5 µg/mL (≈ 44.1 µM) | MIC (Candida albicans; Candida albicans A 3165, read-out: MIC values): 25 µg/mL (≈ 88.2 µM) | MIC (Candida albicans; Candida albicans A 3166, read-out: MIC values): 12.5 µg/mL (≈ 44.1 µM) | MIC (Candida albicans; Candida albicans A 3167, read-out: MIC values): 25 µg/mL (≈ 88.2 µM) | MIC (Candida albicans; Candida albicans A 3168, read-out: MIC values): 12.5 µg/mL (≈ 44.1 µM) | MIC (Candida albicans; Candida albicans A 3169, read-out: MIC values): 12.5 µg/mL (≈ 44.1 µM) | MIC (Candida albicans; Candida albicans A 3171, read-out: MIC values): 12.5 µg/mL (≈ 44.1 µM) | MIC (Candida albicans; Candida albicans A 3184, read-out: MIC values): 12.5 µg/mL (≈ 44.1 µM) | MIC (Candida albicans; Candida albicans A 3190, read-out: MIC values): 6 µg/mL (≈ 21.2 µM) | MIC (Candida albicans; Candida albicans A 3191, read-out: MIC values): 12.5 µg/mL (≈ 44.1 µM) | MIC (Candida albicans; Candida albicans A 3192, read-out: MIC values): 6 µg/mL (≈ 21.2 µM) | MIC (Candida albicans; Candida albicans A 3194, read-out: MIC values): 25 µg/mL (≈ 88.2 µM) | MIC (Candida albicans; Candida albicans A 3196, read-out: MIC values): 12.5 µg/mL (≈ 44.1 µM) | MIC (Fusarium (bulb)): > 100 µg/mL | MIC (Fusarium (tulip)): 50 µg/mL (≈ 176 µM) | MIC (Fusarium solani; Fusarium solani A 3245): 50 µg/mL (≈ 176 µM) | MIC (Rhizoctonia solani; Rhizoctonia solani 200-25): 4.5 µg/mL (≈ 15.9 µM) | MIC (Trichophyton equinum; Trichophyton equinum 182-76, read-out: MIC values): 3 µg/mL (≈ 10.6 µM) | MIC (Trichophyton equinum; Trichophyton equinum 856-71, read-out: MIC values): 3 µg/mL (≈ 10.6 µM) | MIC ([1]; Trichophyton mentagrophytus 367-68, read-out: MIC values): 1.5 µg/mL (≈ 5.29 µM) | MIC ([1]; Trichophyton mentagrophytus 421-67, read-out: MIC values): 1.5 µg/mL (≈ 5.29 µM) | MIC ([1]; Trichophyton mentagrophytus A 3252, read-out: MIC values): 1.5 µg/mL (≈ 5.29 µM) | MIC ([1]; Trichophyton mentagrophytus R 177, read-out: MIC values): 6 µg/mL (≈ 21.2 µM) | MIC ([1]; Trichophyton mentagrophytus R 178, read-out: MIC values): > 100 µg/mL | MIC ([1]; Trichophyton mentagrophytus RRL 305, read-out: MIC values): 6 µg/mL (≈ 21.2 µM) | MIC (Trichophyton quickeaneum; Trichophyton quickeaneum A 2040): 3 µg/mL (≈ 10.6 µM) | MIC (Trichophyton rubrum; Trichophyton rubrum 494-62, read-out: MIC values): 0.1 µg/mL (≈ 0.353 µM) | MIC ([2]; Trichophyton schoenleinii 435-63): 0.1 µg/mL (≈ 0.353 µM) | MIC ([3]; Trichophyton soudanese joyeux 440-63): 12.5 µg/mL (≈ 44.1 µM) | MIC (Trichophyton violoceum; Trichophyton violoceum 442-62): 0.1 µg/mL (≈ 0.353 µM)

[C-]#[N+]C(=C1CCCCC1)S(=O)(=O)c1ccc(C)cc1 [Example 7, a-cyclohexylidene-a-(4-toluenesulphonyl)-methylisocyanide]
MIC (Candida albicans; read-out: MIC values, Candida albicans A 7): 0.8 µg/mL (≈ 2.91 µM) | MIC (Candida albicans; read-out: MIC values, Candida albicans A 3140): 3 µg/mL (≈ 10.9 µM) | MIC (Candida albicans; read-out: MIC values, Candida albicans A 3141): 12.5 µg/mL (≈ 45.4 µM) | MIC (Candida albicans; read-out: MIC values, Candida albicans A 3142): 12.5 µg/mL (≈ 45.4 µM) | MIC (Candida albicans; read-out: MIC values, Candida albicans A 3143): 6 µg/mL (≈ 21.8 µM) | MIC (Candida albicans; read-out: MIC values, Candida albicans A 3144): 6 µg/mL (≈ 21.8 µM) | MIC (Candida albicans; read-out: MIC values, Candida albicans A 3145): 6 µg/mL (≈ 21.8 µM) | MIC (Candida albicans; read-out: MIC values, Candida albicans A 3165): 6 µg/mL (≈ 21.8 µM) | MIC (Candida albicans; read-out: MIC values, Candida albicans A 3166): 6 µg/mL (≈ 21.8 µM) | MIC (Candida albicans; read-out: MIC values, Candida albicans A 3167): 6 µg/mL (≈ 21.8 µM) | MIC (Candida albicans; read-out: MIC values, Candida albicans A 3168): 6 µg/mL (≈ 21.8 µM) | MIC (Candida albicans; read-out: MIC values, Candida albicans A 3169): 6 µg/mL (≈ 21.8 µM) | MIC (Candida albicans; read-out: MIC values, Candida albicans A 3171): 6 µg/mL (≈ 21.8 µM) | MIC (Candida albicans; read-out: MIC values, Candida albicans A 3184): 3 µg/mL (≈ 10.9 µM) | MIC (Candida albicans; read-out: MIC values, Candida albicans A 3190): 3 µg/mL (≈ 10.9 µM) | MIC (Candida albicans; read-out: MIC values, Candida albicans A 3191): 6 µg/mL (≈ 21.8 µM) | MIC (Candida albicans; read-out: MIC values, Candida albicans A 3192): 6 µg/mL (≈ 21.8 µM) | MIC (Candida albicans; read-out: MIC values, Candida albicans A 3194): 6 µg/mL (≈ 21.8 µM) | MIC (Candida albicans; read-out: MIC values, Candida albicans A 3196): 12.5 µg/mL (≈ 45.4 µM) | MIC (Fusarium (bulb)): 18.8 µg/mL (≈ 68.3 µM) | MIC (Fusarium (tulip)): 12.5 µg/mL (≈ 45.4 µM) | MIC (Fusarium solani; Fusarium solani): 12.5 µg/mL (≈ 45.4 µM) | MIC (Rhizoctonia solani; Rhizoctonia solani): 1.5 µg/mL (≈ 5.45 µM) | MIC (Trichophyton equinum; read-out: MIC values, Trichophyton equinum 182-76): 3 µg/mL (≈ 10.9 µM) | MIC (Trichophyton equinum; read-out: MIC values, Trichophyton equinum 856-71): 3 µg/mL (≈ 10.9 µM) | MIC ([1]; read-out: MIC values, Trichophyton mentagrophytus 367-68): 0.8 µg/mL (≈ 2.91 µM) | MIC ([1]; read-out: MIC values, Trichophyton mentagrophytus 421-67): 1.5 µg/mL (≈ 5.45 µM) | MIC ([1]; read-out: MIC values, Trichophyton mentagrophytus A 3252): 0.8 µg/mL (≈ 2.91 µM) | MIC ([1]; read-out: MIC values, Trichophyton mentagrophytus R 177): 3 µg/mL (≈ 10.9 µM) | MIC ([1]; read-out: MIC values, Trichophyton mentagrophytus R 178): 12.5 µg/mL (≈ 45.4 µM) | MIC ([1]; read-out: MIC values, Trichophyton mentagrophytus RRL 305): 1.5 µg/mL (≈ 5.45 µM) | MIC (Trichophyton quickeaneum; Trichophyton): 0.8 µg/mL (≈ 2.91 µM) | MIC (Trichophyton rubrum; read-out: MIC values, Trichophyton rubrum 494-62): 0.8 µg/mL (≈ 2.91 µM) | MIC (Trichophyton rubrum; read-out: MIC values, Trichophyton rubrum A 810): 0.8 µg/mL (≈ 2.91 µM) | MIC ([2]; Trichophyton schoenleinii): 0.2 µg/mL (≈ 0.726 µM) | MIC ([3]; Trichophyton): 12.5 µg/mL (≈ 45.4 µM) | MIC (Trichophyton violoceum; Trichophyton): 0.2 µg/mL (≈ 0.726 µM)

Reference: patent publication EP0007672A1, “Isocyanoalkenes, process and useful intermediates for their preparation, pharmaceutical and fungicidal preparations containing those isocyanoalkenes and the use of the fungicidal preparations in agriculture” (GIST-BROCADES N.V., priority 1978, dated 1980)
